Source: ChEMBL document CHEMBL1150413, “A series of potent and selective, triazolylphenyl-based histone deacetylases inhibitors with activity against pancreatic cancer cells and Plasmodium falciparum” (J Med Chem, 2008)

Assays:
[1] = Cytotoxicity against nontransformed human microvascular epithelial cells; type: ADME, cell-based; details: Endothelial cell
Histone deacetylase 3 = Histone deacetylase 3 (Homo sapiens, UniProt O15379)
MIA PaCa-2 = experiment: Cytotoxicity against human Mia Paca2 cells after 72 hrs by MTT assay; type: functional, cell-based; details: MIA PaCa-2, 72 h
BXPC-3 = experiment: Cytotoxicity against human BxPC3 cells after 72 hrs by MTT assay; type: functional, cell-based; details: BXPC-3, 72 h
[2] = Cytotoxicity against human Panc 04.03 cells after 72 hrs by MTT assay; type: functional, cell-based; details: Panc 04.03, 72 h
Histone deacetylase 2 = Histone deacetylase 2 (Homo sapiens, UniProt Q92769)
Histone deacetylase 2, sequence (Q92769 whole entry): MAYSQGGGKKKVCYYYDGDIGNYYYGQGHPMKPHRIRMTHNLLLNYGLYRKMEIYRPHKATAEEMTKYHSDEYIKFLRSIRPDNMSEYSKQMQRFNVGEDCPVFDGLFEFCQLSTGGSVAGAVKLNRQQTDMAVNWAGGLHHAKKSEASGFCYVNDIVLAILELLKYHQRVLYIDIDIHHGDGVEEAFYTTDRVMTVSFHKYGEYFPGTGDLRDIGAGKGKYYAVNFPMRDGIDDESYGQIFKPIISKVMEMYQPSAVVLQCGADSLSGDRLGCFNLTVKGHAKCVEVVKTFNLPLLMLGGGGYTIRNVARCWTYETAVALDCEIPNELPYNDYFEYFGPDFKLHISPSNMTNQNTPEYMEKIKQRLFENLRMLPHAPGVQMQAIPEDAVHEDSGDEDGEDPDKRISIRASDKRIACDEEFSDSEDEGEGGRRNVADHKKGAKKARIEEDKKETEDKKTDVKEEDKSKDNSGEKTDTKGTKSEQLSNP

Histone deacetylase 8 = target: T1, Histone deacetylase 8 (Homo sapiens, UniProt Q9BY41)
T1 sequence (Q9BY41 whole entry): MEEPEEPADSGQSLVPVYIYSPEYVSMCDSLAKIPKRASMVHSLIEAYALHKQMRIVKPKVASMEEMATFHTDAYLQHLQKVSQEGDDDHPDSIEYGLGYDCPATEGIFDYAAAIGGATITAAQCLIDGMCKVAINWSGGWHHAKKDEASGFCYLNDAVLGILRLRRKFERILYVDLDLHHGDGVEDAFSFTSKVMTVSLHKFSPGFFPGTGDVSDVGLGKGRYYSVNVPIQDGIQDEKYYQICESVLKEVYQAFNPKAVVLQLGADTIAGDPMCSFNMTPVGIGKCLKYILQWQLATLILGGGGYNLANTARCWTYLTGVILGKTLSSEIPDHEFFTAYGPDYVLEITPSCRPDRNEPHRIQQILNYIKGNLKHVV

[3] = target: T2, Protein deacetylase HDAC6 (Homo sapiens, UniProt Q9UBN7)
T2 sequence (Q9UBN7 whole entry): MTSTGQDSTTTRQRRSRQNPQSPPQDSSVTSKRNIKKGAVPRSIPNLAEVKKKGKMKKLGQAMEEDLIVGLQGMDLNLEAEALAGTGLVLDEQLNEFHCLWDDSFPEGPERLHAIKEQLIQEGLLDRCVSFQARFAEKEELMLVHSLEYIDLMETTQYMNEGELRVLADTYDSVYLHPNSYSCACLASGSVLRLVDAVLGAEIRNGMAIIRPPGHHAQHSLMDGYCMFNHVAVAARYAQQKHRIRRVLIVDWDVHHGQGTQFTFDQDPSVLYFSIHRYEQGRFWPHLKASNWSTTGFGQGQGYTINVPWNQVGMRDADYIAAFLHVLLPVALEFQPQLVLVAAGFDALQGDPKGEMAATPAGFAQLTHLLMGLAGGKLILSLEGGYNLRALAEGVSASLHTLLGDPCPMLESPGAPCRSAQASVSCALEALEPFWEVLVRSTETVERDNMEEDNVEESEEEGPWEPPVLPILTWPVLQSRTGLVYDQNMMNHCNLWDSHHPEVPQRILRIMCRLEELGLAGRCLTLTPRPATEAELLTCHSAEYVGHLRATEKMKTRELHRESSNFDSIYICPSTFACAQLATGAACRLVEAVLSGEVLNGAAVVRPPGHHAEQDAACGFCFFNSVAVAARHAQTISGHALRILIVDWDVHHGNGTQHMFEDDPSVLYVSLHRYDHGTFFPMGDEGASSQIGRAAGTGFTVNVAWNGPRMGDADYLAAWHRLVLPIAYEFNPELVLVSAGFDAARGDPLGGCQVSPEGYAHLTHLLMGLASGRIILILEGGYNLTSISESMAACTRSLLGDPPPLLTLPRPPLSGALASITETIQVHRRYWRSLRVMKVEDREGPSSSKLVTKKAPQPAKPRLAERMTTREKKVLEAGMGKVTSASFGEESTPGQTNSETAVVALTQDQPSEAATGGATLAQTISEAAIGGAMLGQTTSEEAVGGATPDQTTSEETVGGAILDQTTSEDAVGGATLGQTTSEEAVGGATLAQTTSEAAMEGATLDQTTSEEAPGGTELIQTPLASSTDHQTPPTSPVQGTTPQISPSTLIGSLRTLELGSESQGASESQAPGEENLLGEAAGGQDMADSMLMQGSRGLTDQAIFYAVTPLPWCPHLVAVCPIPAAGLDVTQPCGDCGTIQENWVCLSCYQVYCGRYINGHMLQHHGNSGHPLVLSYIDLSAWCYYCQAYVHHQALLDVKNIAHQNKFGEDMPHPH

[4] = Cytotoxicity against human Hup T3 cells after 72 hrs by MTT assay; type: functional, cell-based; details: HuP-T3, 72 h
[5] = Selectivity for HDAC10 over HDAC1
[6] = target: T3, Polyamine deacetylase HDAC10 (Homo sapiens, UniProt Q969S8)
T3 sequence (Q969S8 whole entry): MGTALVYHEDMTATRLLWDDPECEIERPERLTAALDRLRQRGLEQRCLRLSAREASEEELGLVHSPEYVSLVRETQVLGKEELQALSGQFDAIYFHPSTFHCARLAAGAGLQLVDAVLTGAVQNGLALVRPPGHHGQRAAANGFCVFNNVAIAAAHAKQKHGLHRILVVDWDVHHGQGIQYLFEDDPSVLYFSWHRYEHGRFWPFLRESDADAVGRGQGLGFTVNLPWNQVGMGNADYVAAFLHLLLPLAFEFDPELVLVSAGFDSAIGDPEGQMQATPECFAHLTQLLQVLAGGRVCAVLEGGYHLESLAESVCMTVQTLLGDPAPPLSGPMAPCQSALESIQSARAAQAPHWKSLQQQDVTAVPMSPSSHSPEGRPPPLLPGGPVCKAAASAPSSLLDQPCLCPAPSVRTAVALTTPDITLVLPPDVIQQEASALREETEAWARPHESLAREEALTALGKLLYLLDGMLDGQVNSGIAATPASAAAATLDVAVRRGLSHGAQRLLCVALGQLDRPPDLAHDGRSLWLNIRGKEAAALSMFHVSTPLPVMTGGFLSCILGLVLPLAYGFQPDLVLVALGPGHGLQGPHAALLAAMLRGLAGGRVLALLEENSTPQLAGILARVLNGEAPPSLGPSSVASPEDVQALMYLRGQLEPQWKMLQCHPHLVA

[7] = Cytotoxicity against human HPDE6c7 cells; type: ADME, cell-based
[8] = Cytotoxicity against human SU 86.86 cells after 72 hrs by MTT assay; type: functional, cell-based; details: SU.86.86, 72 h
Histone deacetylase 1 = Histone deacetylase 1 (Homo sapiens, UniProt Q13547)
Histone deacetylase 1, sequence (Q13547 whole entry): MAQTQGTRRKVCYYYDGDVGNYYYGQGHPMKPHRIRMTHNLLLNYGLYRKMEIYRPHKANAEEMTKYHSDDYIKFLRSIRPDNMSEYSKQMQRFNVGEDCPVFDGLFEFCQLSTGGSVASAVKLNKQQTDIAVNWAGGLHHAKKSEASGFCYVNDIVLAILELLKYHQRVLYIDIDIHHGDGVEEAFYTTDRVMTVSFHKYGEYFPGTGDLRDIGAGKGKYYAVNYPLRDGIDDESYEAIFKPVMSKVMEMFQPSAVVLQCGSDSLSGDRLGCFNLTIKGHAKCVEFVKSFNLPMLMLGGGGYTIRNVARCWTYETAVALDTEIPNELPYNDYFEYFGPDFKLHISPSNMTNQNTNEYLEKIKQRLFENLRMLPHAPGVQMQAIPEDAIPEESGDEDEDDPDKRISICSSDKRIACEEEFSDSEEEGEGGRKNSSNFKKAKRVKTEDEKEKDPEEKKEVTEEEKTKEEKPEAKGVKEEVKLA

Plasmodium falciparum [9] = experiment: microbe, parasite or virus in culture; details: TM91C235
Description: Antimalarial activity against Plasmodium falciparum TM91C235 by hypoxanthine uptake

Plasmodium falciparum [10] = experiment: Antimalarial activity against Plasmodium falciparum TM90C2A by hypoxanthine uptake; type: functional, organism-based
Plasmodium falciparum [11] = experiment: Antimalarial activity against Plasmodium falciparum W2 by hypoxanthine uptake; type: functional, organism-based
Plasmodium falciparum [12] = experiment: Antimalarial activity against Plasmodium falciparum D6 by hypoxanthine uptake; type: functional, organism-based

Histone deacetylase 3, sequence (O15379 whole entry): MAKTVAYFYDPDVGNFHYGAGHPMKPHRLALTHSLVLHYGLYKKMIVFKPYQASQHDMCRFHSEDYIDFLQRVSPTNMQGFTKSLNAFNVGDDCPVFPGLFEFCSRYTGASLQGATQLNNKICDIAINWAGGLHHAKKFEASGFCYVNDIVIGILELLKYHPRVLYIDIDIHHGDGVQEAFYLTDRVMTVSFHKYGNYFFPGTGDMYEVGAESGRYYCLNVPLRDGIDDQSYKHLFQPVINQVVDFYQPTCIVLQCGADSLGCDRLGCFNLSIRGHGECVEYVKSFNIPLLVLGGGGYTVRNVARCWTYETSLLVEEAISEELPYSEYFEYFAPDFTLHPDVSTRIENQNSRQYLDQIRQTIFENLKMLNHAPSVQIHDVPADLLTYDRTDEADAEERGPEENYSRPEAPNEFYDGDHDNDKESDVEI

Row | IC50 (Histone deacetylase 3) [nM] | IC50 (Histone deacetylase 2) [nM] | IC50 (Histone deacetylase 8) [nM] | IC50 [3] [nM] | Ratio IC50 [5] | IC50 [6] [nM] | IC50 (Histone deacetylase 1) [nM] | IC50 (Plasmodium falciparum [9]) [nM] | IC50 (Plasmodium falciparum [10]) [nM] | IC50 (Plasmodium falciparum [11]) [nM] | IC50 (Plasmodium falciparum [12]) [nM] | SMILES | IC50 [1] [nM] | IC50 (MIA PaCa-2) [nM] | IC50 (BXPC-3) [nM] | IC50 [2] [nM] | IC50 [4] [nM] | IC50 [7] [nM] | IC50 [8] [nM]
1 | 8 | 47.5 | 1970 | 1.3 | 0.8 | 36.1 | 27.1 |  |  |  |  | O=C(CCCCCCC(=O)Nc1ccc(-c2cn(-c3ccccc3)nn2)cc1)NO | 1000 | 400 | 3000 | 1000 | 1000 | 1000 | 1000
2 |  | 63.9 | 2780 | 9.6 |  | 27.7 | 18 | 35 | 17 | 32 | 17 | O=C(CCCCCCC(=O)Nc1cccc(-c2cn(-c3ccccc3)nn2)c1)NO | < 1000 |  |  | < 500 |  | < 200 | 
3 | 4 | 77.4 | 552 | 2.6 | 0.5 | 34.3 | 17.6 | 280 | 110 | 350 | 180 | O=C(CCCCCCC(=O)Nc1cccc(-c2cn(Cc3ccc(F)cc3)nn2)c1)NO | < 1000 | 300 | 1000 | 1000 | 1000 | 500 | 1000
4 | 9.7 | 124 | 790 | 3.1 | 1 | 70.1 | 68.3 | 520 | 300 | > 1200 | 400 | O=C(CCCCCCC(=O)Nc1ccc(-c2cnnn2Cc2ccccc2)cc1)NO |  | 2000 | 11000 | 2000 | 5000 |  | 9000
